Source: ChEMBL document CHEMBL4715829, “Heterodimeric Rifampicin-Tobramycin conjugates break intrinsic resistance of Pseudomonas aeruginosa to doxycycline and chloramphenicol in vitro and in a Galleria mellonella in vivo model” (Eur J Med Chem, 2019)
≈ marks a conversion by molar mass, not a printed value.

Columns and labels:
Pseudomonas aeruginosa [1] = test: Antibacterial activity against Pseudomonas aeruginosa 750 harboring efflux mutant assessed as reduction in bacterial growth incubated for 18 hrs by broth microdilution assay; assay type: functional
Pseudomonas aeruginosa [2] = test: Antibacterial activity against Pseudomonas aeruginosa 262-101856 assessed as fractional inhibitory concentration index in presence of chloramphenicol incubated for 18 hrs by broth microdilution assay; assay type: functional
Pseudomonas aeruginosa [3] = test: Antibacterial activity against Pseudomonas aeruginosa 101243 assessed as reduction in bacterial growth incubated for 18 hrs by broth microdilution assay; assay type: functional
[4] = test system: Staphylococcus epidermidis; test: Antibacterial activity against methicillin-resistance Staphylococcus epidermidis CAN-ICU 61589 (CAZ>32) assessed as reduction in bacterial growth incubated for 18 hrs by broth microdilution assay; assay type: functional
Pseudomonas aeruginosa [5] = test: Antibacterial activity against Pseudomonas aeruginosa 260-97103 assessed as reduction in bacterial growth incubated for 18 hrs by broth microdilution assay; assay type: functional
Klebsiella pneumoniae [6] = test: Antibacterial activity against Klebsiella pneumoniae ATCC 13883 assessed as reduction in bacterial growth incubated for 18 hrs by broth microdilution assay; assay type: functional
Pseudomonas aeruginosa [7] = test: Antibacterial activity against Pseudomonas aeruginosa 262-101856 assessed as fractional inhibitory concentration incubated for 18 hrs in presence of doxycycline by broth microdilution assay; assay type: functional
Pseudomonas aeruginosa [8] = test: Antibacterial activity against Pseudomonas aeruginosa 264-101354 assessed as fractional inhibitory concentration incubated for 18 hrs in presence of doxycycline by broth microdilution assay; assay type: functional
[9] = test system: Stenotrophomonas maltophilia; test: Antibacterial activity against Stenotrophomonas maltophilia CAN-ICU 62584 assessed as reduction in bacterial growth incubated for 18 hrs by broth microdilution assay; assay type: functional
Pseudomonas aeruginosa [10] = test: Antibacterial activity against Pseudomonas aeruginosa 101243 assessed as fractional inhibitory concentration index in presence of doxycycline incubated for 18 hrs by broth microdilution assay; assay type: functional
Pseudomonas aeruginosa [11] = test: Antibacterial activity against Pseudomonas aeruginosa 264-101354 assessed as reduction in bacterial growth incubated for 18 hrs by broth microdilution assay; assay type: functional
Escherichia coli [12] = test: Antibacterial activity against Escherichia coli ATCC 25922 assessed as potentiation of chloramphenicol-induced antibacterial activity by measuring chloramphenicol MIC at 10 uM incubated for 18 hrs in presence of chloramphenicol by broth microdilution assay (reference value: 2 ug/ml); assay type: functional
Enterobacter cloacae [13] = test: Antibacterial activity against Enterobacter cloacae ATCC 117029 assessed as fractional inhibitory concentration index in presence of doxycycline incubated for 18 hrs by broth microdilution assay; assay type: functional
Pseudomonas aeruginosa [14] = test: Antibacterial activity against Pseudomonas aeruginosa PAO1 assessed as reduction in bacterial growth by measuring clindamycin MIC at <=10 uM in presence of clindamycin incubated for 18 hrs by broth microdilution assay based checkerboard assay (reference value: 1024 microg/ml); assay type: functional; conditions: dose microM <=10
Enterobacter cloacae [15] = test: Antibacterial activity against Enterobacter cloacae ATCC 117029 assessed as potentiation of doxycycline-induced antibacterial activity by measuring doxycycline MIC at 10 uM incubated for 18 hrs in presence of doxycycline by broth microdilution assay (reference value: 64 ug/ml); assay type: functional
Pseudomonas aeruginosa [16] = test: Antibacterial activity against Pseudomonas aeruginosa PAO1 assessed as reduction in bacterial growth by measuring chloramphenicol MIC at <=[…] uM in presence of chloramphenicol incubated for 18 hrs by broth microdilution assay based checkerboard assay (reference value: […] microg/ml); assay type: functional; conditions: dose microM <=10
Pseudomonas aeruginosa [17] = test: Antibacterial activity against Pseudomonas aeruginosa 101885 assessed as fractional inhibitory concentration index in presence of chloramphenicol incubated for 18 hrs by broth microdilution assay; assay type: functional
Pseudomonas aeruginosa [18] = test: Potentiation of doxycycline-induced antibacterial activity against Pseudomonas aeruginosa 260-97103 incubated for 18 hrs in presence of doxycycline by broth microdilution assay; assay type: functional, organism-based; conditions: dose 1-32 µg/ml
Escherichia coli [19] = test: Antibacterial activity against Escherichia coli ATCC 25922 assessed as fractional inhibitory concentration index in presence of doxycycline incubated for 18 hrs by broth microdilution assay; assay type: functional
Enterobacter cloacae [20] = test: Antibacterial activity against Enterobacter cloacae ATCC 117029 assessed as reduction in bacterial growth incubated for 18 hrs by broth microdilution assay; assay type: functional
Pseudomonas aeruginosa [21] = test: Antibacterial activity against Pseudomonas aeruginosa PAO1 assessed as reduction in bacterial growth by measuring ceftazidime MIC at <=10 uM in presence of ceftazidime incubated for 18 hrs by broth microdilution assay based checkerboard assay (reference value: 2 microg/ml); assay type: functional; conditions: dose microM <=10
Enterobacter cloacae [22] = test: Antibacterial activity against Enterobacter cloacae ATCC 117029 assessed as potentiation of chloramphenicol-induced antibacterial activity by measuring chloramphenicol MIC at 10 uM incubated for 18 hrs in presence of chloramphenicol by broth microdilution assay (reference value: 8 ug/ml); assay type: functional
Pseudomonas aeruginosa [23] = test: Antibacterial activity against Pseudomonas aeruginosa 101885 assessed as fractional inhibitory concentration index in presence of doxycycline incubated for 18 hrs by broth microdilution assay; assay type: functional
Pseudomonas aeruginosa [24] = test: Antibacterial activity against Pseudomonas aeruginosa 259-96918 assessed as fractional inhibitory concentration index in presence of chloramphenicol incubated for 18 hrs by broth microdilution assay; assay type: functional
Pseudomonas aeruginosa [25] = test: Antibacterial activity against Pseudomonas aeruginosa 260-97103 assessed as fractional inhibitory concentration index in presence of doxycycline incubated for 18 hrs by broth microdilution assay; assay type: functional
Pseudomonas aeruginosa [26] = test: Antibacterial activity against Pseudomonas aeruginosa PAO1 assessed as fractional inhibitory concentration index in presence of Linezolid incubated for 18 hrs by broth microdilution assay based checkerboard assay; assay type: functional
Klebsiella pneumoniae [27] = test: Antibacterial activity against Klebsiella pneumoniae ATCC 16381 assessed as fractional inhibitory concentration index in presence of doxycycline incubated for 18 hrs by broth microdilution assay; assay type: functional
Pseudomonas aeruginosa [28] = test: Potentiation of doxycycline-induced antibacterial activity against Pseudomonas aeruginosa 264-101354 incubated for 18 hrs in presence of doxycycline by broth microdilution assay; assay type: functional, organism-based; conditions: dose 1-32 µg/ml
Pseudomonas aeruginosa [29] = test: Antibacterial activity against Pseudomonas aeruginosa 114228 assessed as fractional inhibitory concentration index in presence of chloramphenicol incubated for 18 hrs by broth microdilution assay; assay type: functional
Pseudomonas aeruginosa [30] = test: Antibacterial activity against Pseudomonas aeruginosa PAO1 assessed as reduction in bacterial growth by measuring tobramycin MIC at <=10 uM in presence of tobramycin incubated for 18 hrs by broth microdilution assay based checkerboard assay (reference value: 1 microg/ml); assay type: functional; conditions: dose microM <=10
Klebsiella pneumoniae [31] = test: Antibacterial activity against Klebsiella pneumoniae ATCC 16381 assessed as potentiation of doxycycline-induced antibacterial activity by measuring doxycycline MIC at 10 uM incubated for 18 hrs in presence of doxycycline by broth microdilution assay (reference value: 128 ug/ml); assay type: functional
Pseudomonas aeruginosa [32] = test: Potentiation of doxycycline-induced antibacterial activity against Pseudomonas aeruginosa PAO1 incubated for 18 hrs in presence of doxycycline by broth microdilution assay; assay type: functional, organism-based; conditions: dose 1-32 µg/ml
Pseudomonas aeruginosa [33] = test: Potentiation of chloramphenicol-induced antibacterial activity against Pseudomonas aeruginosa PAO1 incubated for 18 hrs in presence of chloramphenicol by broth microdilution assay; assay type: functional, organism-based; conditions: dose 1-32 µg/ml
Pseudomonas aeruginosa [34] = test: Antibacterial activity against Pseudomonas aeruginosa PAO1 assessed as reduction in bacterial growth by measuring moxifloxacin MIC at <=10 uM in presence of moxifloxacin incubated for 18 hrs by broth microdilution assay based checkerboard assay (reference value: 1 microg/ml); assay type: functional; conditions: dose microM <=10
Acinetobacter baumannii = test: Antibacterial activity against Acinetobacter baumannii ATCC 17978 assessed as reduction in bacterial growth incubated for 18 hrs by broth microdilution assay; assay type: functional

Compound | MIC (Pseudomonas aeruginosa [1]) [µg/mL] | fractional inhibitory concentration index (FICI) (Pseudomonas aeruginosa [2]) | MIC (Pseudomonas aeruginosa [3]) [µg/mL] | MIC [4] [µg/mL] | MIC (Pseudomonas aeruginosa [5]) [µg/mL] | MIC (Klebsiella pneumoniae [6]) [µg/mL] | MIC [9] [µg/mL] | fractional inhibitory concentration index (FICI) (Pseudomonas aeruginosa [10]) | MIC (Pseudomonas aeruginosa [11]) [µg/mL] | MIC (Pseudomonas aeruginosa [14]) [µg/mL] | MIC (Pseudomonas aeruginosa [16]) [µg/mL] | MIC (Pseudomonas aeruginosa [21]) [µg/mL] | fractional inhibitory concentration index (FICI) (Pseudomonas aeruginosa [26]) | MIC (Pseudomonas aeruginosa [30]) [µg/mL] | MIC (Pseudomonas aeruginosa [34]) [µg/mL] | also measured
CO[C@H]1/C=C/O[C@@]2(C)Oc3c(C)c(O)c4c(O)c(c(/C=N/N5CCN(C)CC5)c(O)c4c3C2=O)NC(=O)/C(C)=C\C=C\[C@H](C)[C@H](O)[C@@H](C)[C@@H](O)[C@@H](C)[C@H](OC(C)=O)[C@@H]1C [RIFAMPIN] | 32 (≈ 38.9 µM) | 1.5 | 4 (≈ 4.86 µM) | ≤ 0.25 | 16 (≈ 19.4 µM) | 16 (≈ 19.4 µM) | 32 (≈ 38.9 µM) | 1.5 | 16 (≈ 19.4 µM) |  |  |  |  |  |  | FIC (Pseudomonas aeruginosa [7]): 0.5; FIC (Pseudomonas aeruginosa [8]): 0.25
CO[C@H]1/C=C/O[C@@]2(C)Oc3c(C)c(O)c4c(O)c(c(/C=N/N5CCN(Cc6cn(CCCCCCCCCCCCO[C@@H]7[C@@H](O[C@H]8O[C@H](CO)[C@@H](O)[C@H](N)[C@H]8O)[C@H](N)C[C@H](N)[C@H]7O[C@H]7O[C@H](CN)[C@@H](O)C[C@H]7N)nn6)CC5)c(O)c4c3C2=O)NC(=O)/C(C)=C\C=C\[C@H](C)[C@H](O)[C@@H](C)[C@@H](O)[C@@H](C)[C@H](OC(C)=O)[C@@H]1C.O=C(O)C(F)(F)F.O=C(O)C(F)(F)F.O=C(O)C(F)(F)F.O=C(O)C(F)(F)F.O=C(O)C(F)(F)F | 128 | <0.125 | 256 | 8 | > 128 | > 32 | > 32 | 0.094 | 256 | 256 | 2 | 2 | 0.28 | 1 | 1 | MIC (Escherichia coli [12]): 1 µg/mL; fractional inhibitory concentration index (FICI) (Enterobacter cloacae [13]): 0.375; MIC (Enterobacter cloacae [15]): 32 µg/mL; fractional inhibitory concentration index (FICI) (Pseudomonas aeruginosa [17]): 0.07; Activity (Pseudomonas aeruginosa [18]): Dose-dependent effect; fractional inhibitory concentration index (FICI) (Escherichia coli [19]): 0.625; MIC (Enterobacter cloacae [20]): 16 µg/mL; MIC (Enterobacter cloacae [22]): 1 µg/mL; fractional inhibitory concentration index (FICI) (Pseudomonas aeruginosa [23]): 0.094; fractional inhibitory concentration index (FICI) (Pseudomonas aeruginosa [24]): <0.625; fractional inhibitory concentration index (FICI) (Pseudomonas aeruginosa [25]): <0.133; fractional inhibitory concentration index (FICI) (Klebsiella pneumoniae [27]): <0.516; Activity (Pseudomonas aeruginosa [28]): Dose-dependent effect; fractional inhibitory concentration index (FICI) (Pseudomonas aeruginosa [29]): <0.156; MIC (Klebsiella pneumoniae [31]): 64 µg/mL; Activity (Pseudomonas aeruginosa [32]): Dose-dependent effect; Activity (Pseudomonas aeruginosa [33]): Dose-dependent effect; MIC (Acinetobacter baumannii): 64 µg/mL
CO[C@H]1/C=C/O[C@@]2(C)Oc3c(C)c(O)c4c(O)c(c(/C=N/N5CCN(Cc6cn(CCCCO[C@@H]7[C@@H](O[C@H]8O[C@H](CO)[C@@H](O)[C@H](N)[C@H]8O)[C@H](N)C[C@H](N)[C@H]7O[C@H]7O[C@H](CN)[C@@H](O)C[C@H]7N)nn6)CC5)c(O)c4c3C2=O)NC(=O)/C(C)=C\C=C\[C@H](C)[C@H](O)[C@@H](C)[C@@H](O)[C@@H](C)[C@H](OC(C)=O)[C@@H]1C.O=C(O)C(F)(F)F.O=C(O)C(F)(F)F.O=C(O)C(F)(F)F.O=C(O)C(F)(F)F.O=C(O)C(F)(F)F | > 256 |  | 256 | 2 | > 128 | > 32 | > 32 |  | 256 | 512 | 8 | 2 | 1.03 | 1 | 1 | 
